Read-outs that look alike come from different tables or passages of the source.
Tests used:
M4 muscarinic receptor = target: T1, M4 muscarinic receptor (Homo sapiens, UniProt P08173); assay: Functional mobilization of intracellular calcium (FLIPR, Fluo-3), M4-CHO cells; format: cell-based; conditions: for Emax: read-out: M4 Efficacy
T1 construct: expressed in transfected cells; host or cells: CHO cells (M4-CHO, under puromycin, zeocin and blasticidin selection)
T1 sequence (P08173 1-479): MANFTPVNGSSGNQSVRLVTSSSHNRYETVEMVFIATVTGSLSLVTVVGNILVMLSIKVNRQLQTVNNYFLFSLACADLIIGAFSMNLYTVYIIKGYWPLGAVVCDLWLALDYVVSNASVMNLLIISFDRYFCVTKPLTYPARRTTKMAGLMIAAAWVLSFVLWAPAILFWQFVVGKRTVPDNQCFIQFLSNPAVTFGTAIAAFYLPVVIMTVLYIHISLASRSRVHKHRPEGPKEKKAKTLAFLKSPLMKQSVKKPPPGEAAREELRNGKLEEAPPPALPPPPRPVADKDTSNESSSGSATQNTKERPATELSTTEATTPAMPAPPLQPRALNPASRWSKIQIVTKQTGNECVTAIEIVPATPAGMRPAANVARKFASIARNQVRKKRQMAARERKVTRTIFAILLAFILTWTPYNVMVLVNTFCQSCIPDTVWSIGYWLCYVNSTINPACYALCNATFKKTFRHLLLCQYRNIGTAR
Summary of the method: (§1)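 Fluo-3 read-out, ex 488/em 540 nm, 60 sec on FLIPR 3. For agonist mode, compound added directly; for inhibition, 15 min compound pre-incubation before carbachol at EC80 (added as a 3× solution), or co-application. Buffer pH 7.4 with 1 mM probenecid; DMSO 0.5%.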

M1 muscarinic receptor = target: T2, M1 muscarinic receptor (Homo sapiens, UniProt P11229); assay: Functional mobilization of intracellular calcium (FLIPR, Fluo-3), M1-CHO cells; format: cell-based; conditions: for Emax: read-out: M1 Efficacy
T2 construct: expressed in transfected cells; host or cells: CHO cells (M1-CHO, under zeocin and G418 selection)
T2 sequence (P11229 1-460): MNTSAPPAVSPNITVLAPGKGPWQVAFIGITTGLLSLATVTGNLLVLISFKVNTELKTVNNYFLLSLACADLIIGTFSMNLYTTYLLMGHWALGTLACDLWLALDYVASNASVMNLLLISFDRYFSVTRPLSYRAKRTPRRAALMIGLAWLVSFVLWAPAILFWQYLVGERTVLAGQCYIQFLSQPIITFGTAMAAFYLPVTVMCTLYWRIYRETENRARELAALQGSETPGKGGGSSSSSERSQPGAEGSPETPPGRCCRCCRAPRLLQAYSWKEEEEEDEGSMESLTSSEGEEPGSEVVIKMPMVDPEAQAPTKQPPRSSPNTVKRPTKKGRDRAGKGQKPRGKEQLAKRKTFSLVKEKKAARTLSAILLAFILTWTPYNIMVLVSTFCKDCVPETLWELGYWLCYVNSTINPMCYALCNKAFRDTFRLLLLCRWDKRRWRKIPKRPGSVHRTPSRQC
Summary of the method: as §1

[1] = compound nos. 1-454, 100% efficacy is the maximum response obtained with the Carbachol control
[2] = compound nos. 1-454, M4-CHO cells, calcium mobilization
[3] = compound nos. 1-454, M1-CHO cells, calcium mobilization
[4] = compound nos. 455-509, 100% efficacy is the maximum response obtained with the Carbachol control

Compound | Emax (M4 muscarinic receptor; [1]) [%] | M4 Activity (M4 muscarinic receptor; [2]) | Emax (M1 muscarinic receptor; [1]) [%] | M1 Activity (M1 muscarinic receptor; [3]) | further results
c1ccc2c(c1)NCC21CCN(C2CC3CCC2C3)CC1 (centres unmarked) [compound 272] | > 70 | +++ (activity was measured to be less than or equal to 0.1 μM) | 65 to 85 | +++ (activity was measured to be less than or equal to 0.7 μM) | –
CCc1cncc(N2CCC(N3CCC4(CC3)CN(C(C)=O)c3ccccc34)CC2)n1 [compound 485] | – | – | – | – | Emax (M4 muscarinic receptor; [4]): 25 to 100%; M4 Activity (M4 muscarinic receptor; compounds 455-509): ++ (activity was measured to be between 2.0 μM and 5.0 μM); Emax (M1 muscarinic receptor; [4]): > 100%; M1 Activity (M1 muscarinic receptor; compounds 455-509): +++ (activity was measured to be less than or equal to 2.0 μM)
CC(=O)N[C@@H]1CC2(CCN([C@H]3C[C@@H]4CC[C@H]3C4)CC2)c2ccccc21 [compound 171] | 55 to 70 | + (activity was measured to be greater than or equal to 4.0 μM) | > 85 | ++ (activity was measured to be between 0.7 μM and 3.0 μM) | –
Fc1ccc2c(c1)C1(CCN(C[C@H]3C[C@H]4CC[C@H]3O4)CC1)CN2 [compound 300] | < 55 | + (activity was measured to be greater than or equal to 4.0 μM) | 65 to 85 | ++ (activity was measured to be between 0.7 μM and 3.0 μM) | –
CCNC(=O)N1C2CCC1CC(N1CCC3(CC1)COc1ccc(F)cc13)C2 (centres unmarked) [compound 219] | < 55 | + (activity was measured to be greater than or equal to 4.0 μM) | 65 to 85 | + (activity was measured to be greater than or equal to 3.0 μM) | –
CC(=O)N1CC2(CCN(CC3CCN(C(=O)O[C@@H]4CCOC4)CC3)CC2)c2cc(F)ccc21 [compound 82] | – | ++ (activity was measured to be between 0.1 μM and 4.0 μM) | – | +++ (activity was measured to be less than or equal to 0.7 μM) | M4 Efficacy (M4 muscarinic receptor; [1]): ++ (efficacy was calculated to be between 70% and 55%); M1 Efficacy (M1 muscarinic receptor; [1]): ++ (efficacy was calculated to be between 85% and 65%)
CCOC(=O)N1CCC(N2CCC3(CC2)CN(C(=O)OCC)c2ccc(F)cc23)CC1 [compound 427] | < 55 | – | < 65 | – | M4 Activity (M4 muscarinic receptor; compound nos. 1-454): + (activity was measured to be greater than or equal to 4.0 μM); M1 Activity (M1 muscarinic receptor; compound nos. 1-454): ++ (activity was measured to be between 0.7 μM and 3.0 μM)
CN(C)C(=O)N1CC2(CCN(C3CCN(C(=O)O[C@H]4CCOC4)CC3)CC2)c2cc(F)ccc21 [compound 120] | < 55 | + (activity was measured to be greater than or equal to 4.0 μM) | < 65 | ++ (activity was measured to be between 0.7 μM and 3.0 μM) | –
CCCOC(=O)N1CCC(CN2CCC3(CC2)CN(C(C)=O)c2ccc(C)cc23)CC1 [compound 306] | < 55 | + (activity was measured to be greater than or equal to 4.0 μM) | < 65 | + (activity was measured to be greater than or equal to 3.0 μM) | –
Cc1ccc2c(c1)C1(CCN(C3CC4CCC3C4)CC1)CN2C(=O)OC(C)(C)C (centres unmarked) [compound 116] | < 55 | ++ (activity was measured to be between 0.1 μM and 4.0 μM) | 65 to 85 | +++ (activity was measured to be less than or equal to 0.7 μM) | –
Fc1ccc2c(c1)C1(CCN(CC3CC4C=CC3C4)CC1)CN2 (centres unmarked) [compound 183] | 55 to 70 | + (activity was measured to be greater than or equal to 4.0 μM) | 65 to 85 | ++ (activity was measured to be between 0.7 μM and 3.0 μM) | –
COCCOC(=O)N1CCC(N2CCC3(CC2)CN(C(C)=O)c2ccc(C)cc23)CC1 [compound 293] | > 70 | +++ (activity was measured to be less than or equal to 0.1 μM) | > 85 | ++ (activity was measured to be between 0.7 μM and 3.0 μM) | –
CCOC(=O)N1CCC(N2CCC3(CC2)CN(C(=O)c2ccccc2OC)c2ccc(F)cc23)CC1 [compound 262] | < 55 | + (activity was measured to be greater than or equal to 4.0 μM) | < 65 | + (activity was measured to be greater than or equal to 3.0 μM) | –
CCCCOC(=O)N1CC2(CCN(C3CCN(C(=O)OCC)CC3)CC2)c2cc(F)ccc21 [compound 220] | < 55 | + (activity was measured to be greater than or equal to 4.0 μM) | 65 to 85 | + (activity was measured to be greater than or equal to 3.0 μM) | –
CCOC(=O)N1CCC(N2CCC3(CC2)CNc2ccc(Cl)cc23)CC1 [compound 19] | 55 to 70 | ++ (activity was measured to be between 0.1 μM and 4.0 μM) | 65 to 85 | +++ (activity was measured to be less than or equal to 0.7 μM) | –
CCOC(=O)N1C2CCC1CC(N1CCC3(CC1)CN(S(C)(=O)=O)c1ccc(F)cc13)C2 (centres unmarked) [compound 103] | < 55 | ++ (activity was measured to be between 0.1 μM and 4.0 μM) | 65 to 85 | +++ (activity was measured to be less than or equal to 0.7 μM) | –
CCOC(=O)N1CCC(N2CCC3(CC2)CN(C(=O)c2ccc(OC(F)(F)F)cc2)c2ccc(F)cc23)CC1 [compound 66] | > 70 | +++ (activity was measured to be less than or equal to 0.1 μM) | > 85 | +++ (activity was measured to be less than or equal to 0.7 μM) | –
COCCOC(=O)N1CC2(CCN(C3CC4CCC(C3)N4C(=O)OCCOC)CC2)c2cc(F)ccc21 (centres unmarked) [compound 117] | < 55 | ++ (activity was measured to be between 0.1 μM and 4.0 μM) | 65 to 85 | +++ (activity was measured to be less than or equal to 0.7 μM) | –
CC(=O)N1CCC2(CCN(C3CCN(c4cnc5ccccc5n4)CC3)CC2)c2ccccc21 [compound 456] | – | – | – | – | Emax (M4 muscarinic receptor; [4]): 25 to 100%; M4 Activity (M4 muscarinic receptor; compounds 455-509): ++ (activity was measured to be between 2.0 μM and 5.0 μM); Emax (M1 muscarinic receptor; [4]): > 100%; M1 Activity (M1 muscarinic receptor; compounds 455-509): ++ (activity was measured to be between 2.0 μM and 5.0 μM)
CN(C)C(=O)N1CC2(CCN(C3CCN(c4cccc(F)c4)CC3)CC2)c2cc(F)ccc21 [compound 438] | 55 to 70 | – | 65 to 85 | – | M4 Activity (M4 muscarinic receptor; compound nos. 1-454): +++ (activity was measured to be less than or equal to 0.1 μM); M1 Activity (M1 muscarinic receptor; compound nos. 1-454): ++ (activity was measured to be between 0.7 μM and 3.0 μM)

— patent US7858635B2 (priority 2005, dated 2010)
